Experiments:
Adnp p.Tyr718* mice = experiment: Visual evoked potential in CRISPR/Cas9 Adnp p.Tyr718* mice; assay type: in vivo, mouse; conditions: Adnp p.Tyr718* mice (discovered in males), NAP treatment
Text: We have developed another Adnp mutated mouse model using CRISP/Cas9 technology. The mice carry the most prevalent ADNP syndrome mutation (e.g. Adnp p.Tyr718* in the mouse corresponding to ADNP pTyr719* in the human). […] Monitoring visual evoked potential provides an objective observation of aberrant ADNP activity on one hand and its correction by treatment, e.g. by NAP peptide on another hand. Given the results in Example 1, gut microbiota samples are now being analyzed and are correlated also to visual evoked potential responses of males and females, coupling biomarkers for better diagnostics and clinical monitoring. The following bacteria in gut microbiota are tested and correlated with changes in visual evoked potential in subjects having aberrant ADNP activity: Bifidobacterium, Clostridium, Bacteroides, Faecalibacterium, Eubacterium, Ruminococcus, Peptococcus, Peptostreptococcus, Parabacteroides, Escherichia coli, Verrucomicrobia, Lactobacillus, Clostridium coccoides group, Mouse Intestinal Bacteroides (MIB) Enterococcus genus (gEncocc) and Clostridium Cluster IV (sgClep).

Adnp+/− mice [1] = experiment: Open field behavior of Adnp+/− mice; assay type: in vivo, mouse
Experimental: (§1) All procedures involving animals in the Adnp-mutated mouse model were approved by the Animal Care and Use Committee of Tel Aviv University and the Israeli Ministry of Health. Adnp heterozygous mice (Adnp^+/−) on an ICR background (an outbred mouse line), a model for the ADNP syndrome (Hacohen-Kleiman et al. 2018), were housed in a 12-h light/12-h dark cycle facility with free access to rodent chow and water. Genotyping was performed by Transnetyx (Memphis, Tenn.). After genotyping, the mice were housed in separate cages based on sex, genotype and treatment (up to five mice per cage), for two weeks prior to beginning of NAP treatment.
(§2) NAP peptide was custom made as described in (Hacohen-Kleiman et al. 2018). Prior to behavioral tests, intranasal treatment was administered daily to 1-month-old male and female mice (0.5 μg/5 μl/mouse/dose). For intranasal administration, the peptide was dissolved in a vehicle solution, termed DD, in which each milliliter included 7.5 mg of NaCl, 1.7 mg of citric acid monohydrate, 3 mg of disodium phosphate dihydrate, and 0.2 mg of benzalkonium chloride solution (50%). Each mouse was handheld in a semi-supine position with nostrils facing the investigator. A pipette tip was used to administer 5 μl/two nostrils. The mouse was handheld until the solution was entirely absorbed (˜10 s). Nasal NAP application was performed daily, once a day, for 45 days (5 days a week). After 45 days of treatment, in days of scheduled behavioral tests, NAP was applied 2 h before the test.
The test provides a unique opportunity to systematically assess novel environment exploration, general locomotor activity, and anxiety-related behavior in rodents. […] The distance moved and time spent in the entire open field, as well as in its inner defined quadrants (center, border) was recorded using the EthoVision XT video tracking system and software (Noldus Inc. Leesburg, VA). […]

[2] = Body weight of Adnp+/− mice; assay type: in vivo, mouse; conditions: male Adnp+/− cohort, NAP treatment
Experimental: as §1
as §2, with “Nasal NAP application was performed daily, once a day, for 45 days (5 days a week). After 45 days of treatment, in days of scheduled behavioral tests, NAP was applied 2 h before the test.” left out

[3] = test system: murine intestinal microbiota; experiment: Murine fecal microbiota analysis (qRT-PCR, 16S rRNA gene) in Adnp+/− mouse model; assay type: in vivo
Experimental: as §1, §2
Fecal pellets (1-2/mice) were collected 45 days after the beginning of treatment (NAP or DD) and stored at −80° C. until DNA purification procedures. The samples were thawed on ice mixed with 400 μl of sterile PBS/sample followed by mechanical disruption of the sample using a BeadBug microtube homogenizer (Daniel Biotech, Rehovot, Israel) for 2 minutes at 4,000 rpm. A 25 μl sample of lysozyme solution (20 mg/ml) was added, and the samples were incubated with shaking for 30 min at 37° C. on a thermo shaker racking platform. Next, 20 μl proteinase K (20 mg/ml) was included and the samples were thoroughly mixed with 400 μl of sterile lysis buffer (20 mM Tris HCl, 300 mM NaCl, 400 mM EDTA and 1% SDS) and incubated with shaking for 60 min at 56° C. on a thermo shaker racking platform. Next, 300 mg sterile zirconium beads and 150 μl of phenol was added to the samples followed by homogenization (twice for 40 sec. at 4,000 rpm, Daniel biotech, Rehovot, Israel). Then, 150 μl of CI-solution (chloroform-isoamyl alcohol 24:1) was added, mixed and submitted for centrifugation 13,000 rpm at room temperature for 5 minutes, Eppendorf Centrifuge 5417R (Eppendorf, Hamburg, Germany). A 600 μl volume of supernatant was removed and placed in a sterile 2 mL Eppendorf tube. 150 μl of CI-solution was then included and the samples were subjected to centrifugation as above. A 400 μl of aqueous, clear top phase was removed and placed in a sterile 2 mL Eppendorf tube. Then, the 400 μl of DNA solution was mixed with 100 μl of precipitation solution (40 mM EDTA 1.2M sodium acetate and 4 mg/ml glycogen). 1.3 mL of ice-cold 100% ethanol was added, the samples were then mixed and stored over night at −20° C. for DNA precipitation followed by centrifugation (13,000 rpm) at 4° C. The supernatant was discarded and the pellet washed with 500 μl ice-cold 70% ethanol followed by centrifugation for 5 minutes at 13,000 rpm, 4° C. (this step was repeated twice). The pellet was dried in the Speed Vac (Eppendorf Concentrator 5301) for 15 minutes and then re-suspended in 100 μl sterile water. Next, the samples were mixed on the shaker for 10 minutes at room temperature. In the next step, the samples were further purified using Qiagen Purification Kit according to the manufacturer's instructions ([…], Hilden, Germany). DNA was eluted in 100 μl sterile water and stored at −20° C. for long storage. […]

Adnp+/− mice [4] = conditions: exogenous administration of NAP; cited from earlier work
[5] = test system: human microbiota-harboring mice suffering from subacute ileitis; conditions: gut inflammation model; cited from earlier work
[6] = female Adnp+/− mice, fecal samples, intranasal NAP 0.5 μg/mouse daily, 45 days
[7] = females, genotype and NAP treatment effect
[8] = male Adnp+/− mice, fecal samples, intranasal NAP 0.5 μg/mouse daily, 45 days
[9] = males, genotype and NAP treatment effect

NAPVSIPQ
Aberrant visual evoked potential patterns (Adnp p.Tyr718* mice): rapidly corrected
Behavioral changes (overall effect of NAP treatment) (Adnp+/− mice [1]; Adnp deficient mice): partially reverses
Time spent in the center area (open field) (Adnp+/− mice [1]; Adnp+/+, Adnp+/− and NAP treated Adnp+/− mice, FIG. 3B): did not reveal significant changes
Frequency entrance to the center area (open field) (Adnp+/− mice [1]; untreated male Adnp+/− mice vs Adnp+/+ (p<0.01) and vs NAP treated Adnp+/− mice (p<0.05), FIG. 3A): significantly higher frequency entrance in to the center area compared to Adnp^+/+ mice and NAP treated Adnp^+/− mice
Body weight [2]: increased weight
Changes in microbiota (overall effect of NAP treatment) ([3]; Adnp deficient mice): partially reverses
Total Eubacterial loads ([3]; female Adnp+/+ mice, fecal samples, NAP treated (data not shown)): essentially lower total Eubacterial loads
Trending genotype increases in microbiota groups corrected by NAP treatment ([3]; female Adnp+/− mice): significantly corrected two trending genotype increases
Clostridium coccoides group (Coer) abundance [3, 6]: significant NAP-dependent decreases
Enterococcus genus (gEncocc) numbers [3, 6]: lower fecal Enterococcus genus (gEncocc) numbers
Bacteroides/Prevotella spp (Bac) abundance [3, 7]: neither affected by genotype nor by NAP treatment
Bifidobacterium genus (BIF) abundance [3, 7]: neither affected by genotype nor by NAP treatment
Enterobacteriaceae (Entero) abundance [3, 7]: neither affected by genotype nor by NAP treatment
Eubacteriaceae (EubV3) abundance [3, 7]: neither affected by genotype nor by NAP treatment
Mouse Intestinal Bacteroides (MIB) abundance [3, 7]: neither affected by genotype nor by NAP treatment
Clostridium coccoides group (Coer) intestinal numbers ([3]; male Adnp+/+ controls, NAP treated compared to placebo treated (data not shown)): higher intestinal numbers
Genotype affected microbiota groups whose deficit was reversed by NAP treatment ([3]; male Adnp+/− mice): four out of five
Bifidobacterium genus (BIF) abundance [3, 8]: decreased to control levels
Clostridium coccoides group (Coer) abundance [3, 8]: except for Clostridium coccoides group (Coer) decreased to control levels
Lactobacillus group (Lacto) abundance [3, 8]: decreased to control levels
Mouse Intestinal Bacteroides (MIB) abundance [3, 8]: decreased to control levels
Total Eubacterial loads (EubV3) [3, 8]: decreased to control levels
Bacteroides/Prevotella spp (Bac) abundance [3, 9]: neither affected by genotype nor by NAP treatment
Clostridium Cluster IV (sgClep) abundance [3, 9]: neither affected by genotype nor by NAP treatment
Enterobacteriaceae (Entero) abundance [3, 9]: neither affected by genotype nor by NAP treatment
Enterococcus genus (gEncocc) abundance [3, 9]: neither affected by genotype nor by NAP treatment
Behavioral and developmental defects (Adnp+/− mice [4]): at least partially reverse behavioral and developmental defects
Anti-inflammatory effects [5]: anti-inflammatory NAP effects were observed

From US20220340955A1, “METHODS FOR DIAGNOSING AND TREATMENT MONITORING OF ADNP-DEFICIENT PATIENTS” (RAMOT AT TEL-AVIV UNIVERSITY LTD., priority 2019, published 2022)
